Experimental data from article PMC11351453 (BMC Chemistry, 2024).

Assays:
A549 cells = test: cells; format: cell-based; details: Homo sapiens, A549, 72 h, read-out: IC50 A549
H1975 cells = test: AO staining analysis; format: cell-based; details: T001-10027877 0.5, 1, 2 µM, AZD9291 1 µM

IC50 (A549 cells): 4.95 µM
SMILES: C=CC(=O)Nc1cc(Nc2nccc(-c3cn(C)c4ccccc34)n2)c(OC)cc1N(C)CCN(C)C [AZD9291]
cell morphology / induction of apoptosis (AO staining) (H1975 cells): induced significant shrinkage of the cell membrane
